l = locked nucleic acid (LNA); d = 2'-deoxy (DNA)
Tests used:
[1] = tested on: RPMI-8226, KMS-12-BM and NCI-H929 MM cells; test: CCK-8 cell growth assay after transfection; format: cell-based, Human; details: transfection with 25 nM
Experimental: 3×10^5 cells were transfected using Neon Transfection System (Invitrogen, Calif.,U.S.), (2 pulses at 1150, 30ms). The transfection efficiency evaluated by flow-cytometric analysis relative to a FAM dye—labeled anti-miR—negative control reached 85% to 90%.
(§1) Cells were seeded in 100 μL (suspension cell lines) or 50 μL (adherent cell lines) of culture medium at a density ranging from 0,5 to 2,5×10^3 cells per well. Survival was evaluated by both Cell Counting Kit-8 colorimetric assay (CCK-8, Dojindo Molecular Technologies, Japan) and CellTiter-Glo Luminescent Cell Viability Assay (Promega Madison, Wis., USA). Assays were performed according to the manufacturer's instructions. The optical density (OD) was evaluated at wave length of 450 nm. Both OD and luminescence were recorded with the GloMax-multi detection system (Promega, Madison, Wis., USA).

AMO1 xenografts = test: In vivo tumor growth of AMO1 xenografts (IVIS); design: species or system mice; details: I.P. 2 mg/kg at day 1-4-8-15-22
Excerpt: Male CB-17 severe combined immunodeficient (SCID) mice (6- to 8-weeks old; Harlan Laboratories, Inc., Indianapolis) were housed and monitored in our Animal Research Facility. All experimental procedures and protocols had been approved by the Institutional Ethical Committee (Magna Graecia University) and conducted according to protocols approved by the National Directorate of Veterinary Services (Italy). In accordance with institutional guidelines, mice were sacrificed when tumors reached 2 cm in diameter or in the event of paralysis or major compromise, to prevent unnecessary suffering. Animal experimental procedures have been performed as in previous reports (Di Martino et al, CCR 2012; Di Martino el al. Oncotarget 2013, Di Martino et al PlosOne 2014). […] Mice were also inoculated with 5×10^6 luciferase gene-marked U266, AMO-1, AMO-1/abzb, treatments were performed intraperitoneally (i.p.), and tumor volume were measured by IVIS Lumina II.
In vivo anti-MM activity of LNA gapmer_06 was next evaluated in NOD/SCID mice bearing subcutaneous AMO1 xenografts. […] Tumors volume were measured using IVIS LUMINA II Imaging We next evaluate the in vivo activity in Bortezomib-refractory model of human MM. […] Tumors volume were measured using IVIS LUMINA II Imaging System.

MM cell lines = test: CCK-8 cell growth analysis after gymnotic exposure; format: cell-based, Human; details: six days gymnotic exposure, 100 nM to 20 μM; ten MM cell lines; units printed inside the value (nM lower, μM upper); read-out: IC50 values by CCK-8 assay, range over MM cell lines
Experimental: (§2) Cells were seeded at low plating density in order to reach confluence on the final day of the experiments (day 6). Cell number at plating ranged from 0.5 to 2.5×10^3 in 96-well plates, from 2.5 to 10×10^3 in 12-well plates and from 1 to 3×10^4 in 6-well plates.
(§3) The LNA/DNA Gapmers were used at concentrations ranging from 0.1 to 20 μM.
as §1

[2] = tested on: miR-17-92 primary transcripts and mature miRNA family members; test: q-RT-PCR after transfectant reagents-free (gymnotic) exposure; format: cell-based, Human; details: six days gymnotic exposure, 1 and 2,5 μM; two MM cell lines (NCI-H929); vs saline vehicle
Experimental: as §2, §3
Reverse transcription (RT) of both primary and mature miRNAs was performed using TaqMan® MicroRNA Assays, following a procedure for multiplexing the RT step (Life Technologies, Publication Part Number 4465407). Briefly, 500 ng of total RNA, prepared with the TRIzol® Reagent (Invitrogen), underwent reverse transcription by the Taq-Man® MicroRNA RT Kit. In this reaction, the RT primer pool was composed by the individual RT primers for each microRNA belonging to the miR-17-92 cluster and two RT primers to allow the reverse transcription of the miR-17-92 primary miRNA. Real-time PCR was performed using TaqMan® MicroRNA Assays together with the TaqMan® Universal PCR Master Mix on an ViiA7 System (Life Technologies). Both primary and mature microRNAs expressions were relatively quantified using the 2-ΔΔCt method (Applied Biosystems User Bulletin No. 2), and expressed as the relative quantity of target miRNA normalized to the RNU44 (assay ID 001094) housekeeping gene. […] Relative expression was calculated using the comparative cross threshold (Ct) method.

INA-6 cells = test: INA-6 SCID-hu model, serum shuIL-6R; format: in vivo, mice; details: I.P. 2 mg/kg at day 1-4-8-15-22; compared to controls
Experimental: The SCID-hu model was performed implanting human fetal long bone grafts sc into SCID mice (SCID-hu). Four weeks following bone implantation, 2.5×10^6 INA-6 multiple myeloma cells were injected directly into the human bone implant. Because INA-6 cells release soluble human IL-6 receptor (shuIL-6R), we used this marker to monitor tumor growth in SCID-hu mice.
Mouse sera were serially monitored for shulL-6R levels by ELISA (Quantikine […]; R&D Systems). Mice developed detectable serum shuIL-6R ˜4 weeks following INA-6 cell injection and then were […]. Three days after the last injection, blood samples were collected and analyzed (R&D Systems).
The in vivo activity of gapmer_06 was also evaluate in a orthotopic model of human MM using U266 cells, to explore the efficacy in relation to the microenvironment. Orthotopic murine model was performed by the use of NOD/SCID mice intravenously injected with luciferase gene-marked U266 cells. Tumor growth was monitored using IVIS LUMINA II Imaging System. […] Engraftment was determined by sacrificing mice after 10 weeks and analyzing bone marrow for luciferase gene-marked U266 cells. […] Mice were treated I.P. with gapmer_06 at concentration of 2 mg/kg at day 1-4-8-15-22, and serum shulL-6R levels were serially determined as a marker of tumor growth.

## gapmer_06: LNA/DNA gapmer, SEQ ID 4 (14 mer): +T*+A*+C*T*T*G*C*T*T*G*G*+C*+T*+T; + LNA, * phosphorothioate (antisense TACTTGCTTGGCTT; sugars from the 5' end l3 d8 l3, all phosphorothioate, methylation of C not given here)
[1]
  biological effect on cell growth (CCK-8) compared with single miRNA inhibitors for miR-17/18a/19a/19b/20a/92a: strongest biological effects
[1]; up to 96 hours, compared among the eight gapmers
  cell growth inhibition (CCK-8 assay): strongest cell growth inhibition
AMO1 xenografts
  tumor-growth inhibition relative to Bortezomib 1 mg/kg: almost comparable to Bortezomib effect
AMO1 xenografts; vs NaCl control
  tumor growth (IVIS tumor volume): significant tumor-growth inhibition
MM cell lines
  IC50: 500 to 8000 nM
[2]
  downregulation of primary transcript and mature single miRNAs (q-RT-PCR): downregulation of primary transcript as well as mature single miRNAs, in a dose dependent manner
INA-6 cells
  tumor growth (serum shuIL-6R levels): significant tumor-growth inhibition
